# Data from patent US20090004185A1, “AMINO-SUBSTITUTED QUINAZOLINE DERIVATIVES AS INHIBITORS OF BETA-CATENIN/TCF-4 PATHWAY AND CANCER TREATMENT AGENTS” (WYETH, priority 2007, published 2009).
# Key:
# [1] = system: SV40-Luc; experiment: SV40-Luc control luciferase reporter assay, SV 5A8 cell line (SV40-Luc and SV40-R-Luc), control for non-specific inhibitors; assay type: cell-based, human; conditions: SV 5A8 cells derived from SW480, 24 hours of incubation with compound, ratio Firefly/Renilla luciferase
# Summary of the method: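 Dual-luciferase readout in SW480 lines with chromosomally integrated reporters, namely Tcf-4-driven firefly in Tcf 33.13 and Tcf 22C11, and SV40-driven firefly in SV 5A8, all with SV40-Renilla. Compound incubation is 24 h; IC50 comes from the normalised F/R ratio.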
# [2] = system: β-catenin/Tcf-4; experiment: cells; assay type: cell-based; conditions: 24 hours of incubation with compound, ratio Firefly/Renilla luciferase
# Summary of the method: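 SW480-derived lines with integrated reporters (Tcf-4-driven firefly luciferase; SV40 firefly as specificity control; SV40 Renilla for cell number/toxicity), treated 24 hours with titrated compounds, final 0.316% DMSO. Dual-luciferase read-out; firefly/Renilla ratio as % of control, duplicate plates, IC50 (nM) from curve fit.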
# [3] = Homo sapiens, SW480, 24 h, Tcf 33.13 cells derived from SW480
# [4] = Homo sapiens, Tcf22C11, 24 h, Tcf 22C11 cells derived from SW480
# [5] = Tcf 22C11 cells derived from SW480
# [6] = Tcf 33.13 cells derived from SW480
SMILES,"IC50 ([1]; Homo sapiens, SV5A8, 24 h) [nM]","IC50 [2, 3] [nM]","IC50 [2, 4] [nM]",IC50 [1] [nM],"IC50 [2, 5] [nM]","IC50 [2, 6] [nM]"
"Cc1ccc2c(NCc3ccc(NC(=O)c4ccc(F)cc4)cc3)nc(N(C)CCCN(C)C)nc2c1 [Example 201, N-{4-[({2-[[3-(dimethylamino)propyl](methyl)amino]-7-methylquinazolin-4-yl}amino)methyl]phenyl}-4-fluorobenzamide]",> 4990,664,1310,,,
CN(C)c1nc(NCc2ccc(NC(=O)c3ccc(F)cc3)cc2)c2cc(/C=C\c3ccccc3)ccc2n1 [Example 171],,,,> 19300,2940,4280
"CN(C)c1nc(NCc2ccc(NC(=O)c3ccc(Cl)cc3)cc2)c2cc(C(F)(F)F)ccc2n1 [Example 161, 4-chloro-N-[4-({[2-(dimethylamino)-6-(trifluoromethyl)quinazolin-4-yl]amino}methyl)phenyl]benzamide]",> 10000,1520,1710,,,
"Cc1ccc2c(N[C@@H](C)c3ccc(NC(=O)c4ccc(Cl)nc4)cc3)nc(N(C)C)nc2c1 [Example 269, (S)-6-chloro-N-(4-(1-(2-(dimethylamino)-7-methylquinazolin-4-ylamino)ethyl)phenyl)nicotinamide]",> 11300,319,439,,,
"CNc1nc(NCc2ccc(NC(=O)c3ccc(Cl)cc3)cc2)c2cc(OC)ccc2n1 [Example 33, 4-chloro-N-[4-({[6-methoxy-2-(methylamino)quinazolin-4-yl]amino}methyl)phenyl]benzamide]",> 2790,1720,1280,,,
"Cc1ccc2nc(N(C)C)nc(NCc3ccc(NC(=O)Nc4ccc(F)cc4)cc3)c2c1 [Example 181, N-[4-({[2-(dimethylamino)-6-methylquinazolin-4-yl]amino}methyl)phenyl]-N′-(4-fluorophenyl)urea]",> 2810,549,719,,,
"Cc1ccc2c(NCc3ccc(NC(=O)c4ccc(F)cc4)cc3)nc(N3CCN(CC(=O)N4CCCC4)CC3)nc2c1 [Example 213, 4-fluoro-N-{4-[({7-methyl-2-[4-(2-oxo-2-pyrrolidin-1-ylethyl)piperazin-1-yl]quinazolin-4-yl}amino)methyl]phenyl}benzamide]",> 12400,1390,1710,,,
"Cc1ccc2c(NCc3ccc(NC(=O)C4CCN(Cc5ccccc5)CC4)cc3)nc(N3CCC3)nc2c1 [Example 134, N-(4-{[(2-azetidin-1-yl-7-methylquinazolin-4-yl)amino]methyl}phenyl)-1-benzylpiperidine-4-carboxamide]",> 9600,782,805,,,
"CNc1nc(NCc2ccc(NC(=O)c3ccc(Cl)nc3)cc2)c2cc(C)cc(C)c2n1 [Example 23, 6-chloro-N-[4-({[6,8-dimethyl-2-(methylamino)quinazolin-4-yl]amino}methyl)phenyl]nicotinamide]",> 5590,1720,1880,,,
"CC(=O)N1CCCN(c2nc(NCc3ccc(NC(=O)c4ccc(F)cc4)cc3)c3ccc(C)cc3n2)CC1 [Example 223, N-[4-({[2-(4-acetyl-1,4-diazepan-1-yl)-7-methylquinazolin-4-yl]amino}methyl)phenyl]-4-fluorobenzamide]",> 15600,2660,4460,,,
"CCN(CC)c1nc(NCc2ccc(NC(=O)c3ccc(Cl)cc3)cc2)c2cc(C(F)(F)F)ccc2n1 [Example 165, 4-chloro-N-[4-({[2-(diethylamino)-6-(trifluoromethyl)quinazolin-4-yl]amino}methyl)phenyl]benzamide]",> 9470,5430,9640,,,
CN(C)c1nc(NCc2ccc(C(=O)Nc3ccc(F)cc3)cc2)c2cc(-c3ccc(/C=C/c4ccccc4)cc3)ccc2n1 [Example 173],,,,> 18000,> 4510,4480
"CCCC/C=C/c1ccc2c(NCc3ccc(NC(=O)c4ccc(F)cc4)cc3)nc(N(C)C)nc2c1 [Example 103, N-{4-[({2-(dimethylamino)-7-[(1E)-hex-1-en-1-yl]quinazolin-4-yl}amino)methyl]phenyl}-4-fluorobenzamide]",> 4680,429,615,,,
"CNc1nc(NCc2ccc(NC(=O)c3ccc(F)cc3)cc2)c2cc(C)cc(C)c2n1 [Example 30, N-[4-({[6,8-dimethyl-2-(methylamino)quinazolin-4-yl]amino}methyl)phenyl]-4-fluorobenzamide]",> 5820,1870,2100,,,
"Cc1cc(C)c2nc(N3CCN(C)CC3)nc(NCc3ccc(NC(=O)c4ccc(F)cc4)cc3)c2c1 [Example 49, N-[4-({[6,8-dimethyl-2-(4-methylpiperazin-1-yl)quinazolin-4-yl]amino}methyl)phenyl]-4-fluorobenzamide]",> 10000,> 2510,> 2510,,,
"Cc1ccc2c(NCc3ccc(NC(=O)C4CCN(Cc5ccccc5)CC4)cc3)nc(N(C)CCCN(C)C)nc2c1 [Example 140, 1-benzyl-N-{4-[({2-[[3-(dimethylamino)propyl](methyl)amino]-7-methylquinazolin-4-yl}amino)methyl]phenyl}-piperidine-4-carboxamide]",> 8620,1320,1420,,,
"Cc1ccc2c(NCc3ccc(NC(=O)c4ccc(F)cc4)cc3)nc(N(C)Cc3ccco3)nc2c1 [Example 221, 4-fluoro-N-{4-[({2-[(2-furylmethyl)(methyl)amino]-7-methylquinazolin-4-yl}amino)methyl]phenyl}benzamide]",> 8200,1060,1240,,,
"CCN(CC)c1nc(NCc2ccc(NC(=O)c3ccc(F)cc3)cc2)c2cc(C)ccc2n1 [Example 43, N-[4-((2-(diethylamino)-6-methylquinazolin-4-ylamino)methyl)phenyl)-4-fluorobenzamide]",> 5460,492,738,,,
"CN(C)CC#Cc1ccc2nc(N(C)C)nc(NCc3ccc(NC(=O)c4ccc(F)cc4)cc3)c2c1 [Example 69, N-{4-[({2-(dimethylamino)-6-[3-(dimethylamino)prop-1-yn-1-yl]quinazolin-4-yl}amino)methyl]phenyl}-4-fluorobenzamide]",> 20100,1940,2010,,,
"CN(C)c1nc(NCc2ccc(NC(=O)Nc3ccc(F)cc3)cc2)c2ccccc2n1 [Example 182, N-[4-({[2-(dimethylamino)quinazolin-4-yl]amino}methyl)phenyl]-N′-(4-fluorophenyl)urea]",> 11600,4320,4280,,,
"C/C=C\c1ccc2c(NCc3ccc(NC(=O)c4ccc(F)cc4)cc3)nc(N(C)C)nc2c1 [Example 97, N-{4-[({2-(dimethylamino)-7-[(1Z)-prop-1-en-1-yl]quinazolin-4-yl}amino)methyl]phenyl}-4-fluorobenzamide]",> 2560,599,499,,,
"CN(C)c1nc(NCc2ccc(NC(=O)C3CCN(Cc4ccccc4)CC3)cc2)c2ccc(/C=C/C(C)(C)C)cc2n1 [Example 152, 1-benzyl-N-{4-[({2-(dimethylamino)-7-[(1E)-3,3-dimethylbut-1-en-1-yl]quinazolin-4-yl}amino)methyl]phenyl}piperidine-4-carboxamide]",> 3850,> 962,1050,,,
"CCN1CCN(c2nc(NCc3ccc(NC(=O)c4ccc(F)cc4)cc3)c3ccc(C)cc3n2)CC1 [Example 227, N-[4-({[2-(4-ethylpiperazin-1-yl)-7-methylquinazolin-4-yl]amino}methyl)phenyl]-4-fluorobenzamide]",> 10000,736,1150,,,
"Cc1ccc2nc(N3CCN(C)CC3)nc(NCc3ccc(NC(=O)c4ccc(F)cc4)cc3)c2c1 [Example 46, 4-fluoro-N-((6-methyl-2-(4-methylpiperazin-1-yl)quinazolin-4-ylamino)methyl-phenyl)benzamide]",,,,> 20800,> 20800,> 20800
"Cc1ccc2c(NCc3ccc(NC(=O)c4ccc(Cl)nc4)cc3)nc(N(C)C)nc2c1 [Example 242, 6-chloro-N-[4-({[2-(dimethylamino)-7-methylquinazolin-4-yl]amino}methyl)phenyl]nicotinamide]",> 5590,336,318,,,
"C/C=C/c1ccc2nc(N(C)C)nc(NCc3ccc(C(=O)Nc4ccc(F)cc4)cc3)c2c1 [Example 174, E-4-((2-dimethylamino)-6-(prop-1-enyl)quinazolin-4-ylamino)methyl-N-(4-fluorophenyl)benzamide]",,,,> 5080,436,359
"CN(C)c1nc(NCc2ccc(NC(=O)c3ccc(F)cc3)cc2)c2ccc(/C=C/C(C)(C)C)cc2n1 [Example 102, N-{4-[({2-(dimethylamino)-7-[(1E)-3,3-dimethylbut-1-en-1-yl]quinazolin-4-yl}amino)methyl]phenyl}-4-fluorobenzamide]",> 9360,825,1340,,,
"CNc1nc(NCc2ccc(NC(=O)c3ccc(Cl)cc3Cl)cc2)c2cc(C)ccc2n1 [Example 19, 2,4-dichloro-N-[4-({[6-methyl-2-(methylamino)quinazolin-4-yl]amino}methyl)phenyl]benzamide]",> 21400,12800,> 21400,,,
